Values joined by “and” are separate entries in the source; they are usually repeats but may differ in a detail not shown here. Equal values may be shown once.
Assays:
[1] = Microsomal stability assay, rat liver microsomes; format: in vitro ADME; conditions: pH 7.4; rat liver microsomes 1.0 mg/mL, 1 μM compound, NADPH; read-out: RLM t1/2
Experimental: Compounds were also tested for metabolic stability in both rat liver microsomes (RLM) and the compounds are tested for human liver microsomes (HLM) and their half-life is calculated (See Tables 5A and 5B). The assay was performed as follows. The total volume for each incubation was 250 μL. A 100 μM DMSO solution of compound (diluted from 10 mM stock solution) was spiked into 50 mM KH2PO4 (pH 7.4) buffer containing liver microsome at a concentration of 1.0 mg/mL. The reaction was initiated by the addition of 50 μL of 1 mM NADPH. The final concentration of each compound was 1 μM (1% DMSO). The positive controls, phenacetin for CYP1A2, diclofenac for CYP2C9, omeprazole for CYP2C19, dextromethorphan for CYP2D6 and midazolam for CYP3A4 were added to a separate tube with the final substrate concentrations of 1 μM (1% DMSO) for evaluating the enzyme activities in the liver microsomes. At 0, 15, 30 and 60 min, an aliquot of 15 μL reaction mixtures were removed and 200 μL of methanol (with internal standard of 25 ng/mL propranolol) was added to quench the reaction. The resulting mixture was centrifuged and supernatant was used for LC-MS/MS analysis.
The signals for each compound, or the metabolites for the probe substrates and the internal standard were integrated and the peak area ratios to internal standard were generated. Percent parent remaining at a specified timepoint was calculated based on the peak area ratios at time 0 (as 100%) for in vitro metabolic stability studies in liver microsome and hepatocyte. The observed rate constant (kobs) for the metabolism of substrates was calculated by plotting the natural log of percentage substrate remaining versus time of incubation with the slope being kobs. The half-life (T1/2) was calculated according to the following equation: T1/2=[…]

[2] = target: T1, Parkin ligase (Homo sapiens, UniProt O60260); assay: Activity-Based Probe Assay using Ubiquitin vinyl sulfone probe (TR-FRET); format: biochemical; conditions: heat activated Parkin, HA-Ub-VS probe, activation EC50; read-out: Probe Assay EC50 (μM) [Example 2]
T1 sequence (O60260 1-465): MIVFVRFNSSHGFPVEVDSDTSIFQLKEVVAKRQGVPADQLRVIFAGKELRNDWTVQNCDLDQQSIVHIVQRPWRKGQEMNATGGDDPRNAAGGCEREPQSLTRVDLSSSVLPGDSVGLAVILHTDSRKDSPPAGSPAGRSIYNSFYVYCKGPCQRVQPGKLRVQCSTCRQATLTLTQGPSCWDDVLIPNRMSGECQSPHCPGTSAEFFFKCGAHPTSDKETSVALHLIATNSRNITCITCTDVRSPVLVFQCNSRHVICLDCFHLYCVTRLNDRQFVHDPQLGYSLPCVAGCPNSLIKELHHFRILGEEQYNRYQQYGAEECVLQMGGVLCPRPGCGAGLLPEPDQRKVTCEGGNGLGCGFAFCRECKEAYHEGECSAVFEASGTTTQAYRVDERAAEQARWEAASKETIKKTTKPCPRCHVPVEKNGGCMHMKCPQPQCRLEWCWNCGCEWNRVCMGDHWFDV
Experimental: An Ubiquitin vinyl sulfone probe can be used that irreversibly binds to the active site cysteine of Parkin ligase. Covalent attachment of the probe to the Parkin can be monitored by TR-FRET. Candidate activator compounds can be identified by increasing the activity of Parkin ligase due to an increase in TR-FRET signal. Screening for activating compounds can be distinguished from the controls as follows: 100% activation signal=Heat activated Parkin+100 nM control activator in DMSO. 0% activation signal=Heat activated Parkin+DMSO only. Parkin activators can be identified by an increase of the 0% activation signal TR-FRET signal. Assay Conditions: Materials: • Assay Plate: White 384 well plate (Corning 3572) • Enzyme: Parkin-His tagged 203 μM (10.5 mg/ml) • Probe: Ubiquitin vinyl-sulfone (HA-Ub-VS Boston Biochem U-212) • DMSO: DMSO (Sigma cat #D4540-100ML) • Reaction Buffer: 50 mM HEPES (pH 8.5), 150 mM NaCl, 0.01% Tween 20, 0.1% BSA • Detection Buffer: 50 mM HEPES (pH 8.5), 150 mM NaCl, 0.01% Tween 20, 0.1% BSA, 800 mM KF • Detection Reagent A: 2.6 nM Anti-6HIS-Eu cryptate and 40 nM Anti-HA-XL665 in detection buffer • Eu cryptate: Anti-6HIS-Eu cryptate (CisBio 61HISKLA) • XL665: Anti-HA-XL665 (CisBio 610HAXLA) Enzyme Reaction (15 Min Pre Incubation Parkin with Activator Only) • Parkin: 40 nM • HA-Ub-VS Probe: 70 nM • Activator/DMSO: 2× Activator/2% DMSO Reaction time: 60 minutes Temperature: 22° C. Total volume: 10 μl reaction Detection Reaction Take […] of Enzyme Reaction above and add 10 μl detection Reagent A under the following conditions: • Reaction time: 60 minutes • Temperature: 22° C. • Total volume: 20 μl
Assay procedure (Using HP D-300 compound dispenser and Bravo for the operation):
1) Heat activate Parkin in reaction buffer (500 μl/1.5 ml tube: Eppendorf Thermomixer 5 minutes, 400 rpm at 58° C. and put on ice until needed).
2) Load assay plate wells with 4.8 μl 84.5 nM Parkin in reaction buffer by use of Bravo.
3) Deliver 0.2 μl 200× activator candidates in DMSO by use of HP D-300 compound dispenser. Highest 200× concentration=[…] and then twofold dilutions.
4) Spin 1000 rpm, 2 minutes, at room temp.
5) Incubate plate for 15 minutes at room temp.
6) Add 5 μl 140 nM HA-Ub-VS Probe in reaction buffer by use of Bravo.
7) Spin 1000 rpm, 2 minutes, at room temp.
8) Incubate plate for 60 minutes at room temp.
9) Add 10 μl 2.6 nM Anti-6HIS-Eu cryptate and 40 nM […] in detection buffer.
10) Spin 1000 rpm, 2 minutes, at room temp.
11) Incubate plate for 60 minutes at room temp.
12) Read plates on Perkin Elmer Envision instrument with the following parameters:
LANCE dual laser protocol loaded into the Envision® software
Top Mirror: LANCE/DELFIA Duel/Bias (Bar code 446)
Emission Filter: APC 665 EM (Bar code 205)
2nd Emission Filter: Europium 615 EM (Bar code 203)
Read 655 nm (channel 1) and 615 nm (channel 2) wavelengths on Envision®
Data Analysis: The Data can be read in CSV files. There are two tables in those CSV files, which are the values of 655 nm (channel 1) and 615 nm (channel 2) wavelengths respectively. The data is converted to an HTRF Ratio=(Channel 1/Channel 2)*10,000
The average of all the 0 μM controls (DMSO only)=BKGD (Background—0% activation). Subtract BKGD from each HTRF Ratio value=HTRF−BKGD. The average of all the […] 100 nM control activator in DMSO controls=Max (100% activation). The following equation is then used to calculate % Activation for each well/candidate as follows: % Activation=(HTRF−BKGD/Max)*100.
Graphpad Prism was used with Transform X values: X=Log(X) and nonlinear regression (dose-response-stimulation): Log(agonist) vs Response−variable slope (four parameters) with constrains set to Bottom=0 and Top=100.
The Activity-Based Probe Assay was performed with various compounds in Tables 1, 2, 3A and 3B.

[3] = tested on: A549 (lung); assay: Cancer cell proliferation assay (acid phosphatase); format: cell-based; conditions: Homo sapiens, A549, 72 h, Table 6A; 72 hrs; read-out: A549 IC50
Experimental: (§1) Measurement of the inhibitive effect of compounds on cancer cell proliferation was performed. Various cell lines were tested, including HCT-116 (colon); A549 (lung); TOV-21G (ovarian); Calu-6 (lung); and LS-174T (colon); and cell lines H1703 (Lung) and SKOV3 (ovarian); JEKO-1 (lymophoma); TOV-112D (ovarian) are tested. The assays were performed under the following conditions: Cells are harvested at a concentration of 4×10^4 cells/ml in media. Volumes of 100 μl/well of these cell suspensions were added to a 96 well plate using a multichannel pipette. Plates were gently agitated to ensure an even dispersion of cells over a given plate. Cells were then incubated at 37° C., 5% CO2 overnight. Following this, 100 μl of compound at varying concentrations was added to wells in triplicate. Control wells are those with 100 μl media containing 0.33% DMSO added to cell suspension (this is the equivalent volume of DMSO found in the highest concentration of drug). Plates were then gently agitated, as above, and incubated at 37° C., 5% CO2 for 72 hrs (control wells have reached 80-90% confluency). Assessment of cell proliferation in the presence of the compound was determined by the acid phosphatase assay.
(§2) Following the incubation period of 72 hrs, media was removed from the plates. Each well on the plate was washed twice with 100 μl PBS. This was then removed and 100 μl of freshly prepared phosphatase substrate (10 mM p-nitrophenol phosphate in 0.1M sodium acetate, 0.1% triton X-100, pH 5.5) was added to each well. The plates were then incubated in the dark at 37° C. for 2 hours. Colour development was monitored during this time. The enzymatic reaction was stopped by the addition of 50 μl of 1N NaOH. The plate was read in a dual beam plate reader at 405 nm with a reference wavelength of 620 nm. The absorbance reading of the latter is subtracted from the former, and the effect of the drug on cell proliferation was then measured as a percentage against the control cells (DMSO), which is taken as 0% inhibition.

[4] = tested on: TOV-21G (ovarian); assay: Cancer cell proliferation assay (acid phosphatase); format: cell-based; conditions: Homo sapiens, TOV21G, 72 h, Table 6A; 72 hrs; read-out: TOV-21G IC50
Experimental: as §1, §2

[5] = tested on: HCT-116 (colon); assay: Cancer cell proliferation assay (acid phosphatase); format: cell-based; conditions: Homo sapiens, HCT-116, 72 h, Table 6A; 72 hrs; read-out: HCT-116 IC50
Experimental: as §1, §2

| half-life at 1 μM [1] [h] | EC50 [2] | IC50 [3] [µM] | IC50 [4] [µM] | IC50 [5] [µM] | Compound |
| --- | --- | --- | --- | --- | --- |
| 2.18 | 3 µM |  |  |  | Cc1ccccc1C(=O)Nc1nc(NC(=O)C2CCN2)nn1-c1ccccc1 (stereo not drawn) [Compound 5] |
| 0.85 | 7 µM |  |  |  | Cc1ccccc1C(=O)Nc1nc(NC(=O)c2cccnn2)n(-c2ccccc2)n1 [Compound 13] |
| 0.317 | 3 µM |  |  |  | COc1cccc(C(=O)Nc2nc(NC(=O)c3cccc(OC)c3)n(-c3ccccc3)n2)c1 [Compound 27] |
| 0.333 | 22 µM |  |  |  | Cc1ccccc1C(=O)Nc1nc(NC(=O)c2ncccn2)n(-c2ccccc2)n1 [Compound 28] |
| 0.783 | 2 µM |  |  |  | C#Cc1cccc(C(=O)Nc2nc(NC(=O)c3cccc(N=[N+]=[N-])c3)nn2-c2ccccc2)c1 [Compound 29] |
|  | 12 µM and 10 µM and 13 µM |  | 1.4 | 2.1 | O=C(Nc1nc(NC(=O)c2cccnc2)n(-c2ccc(OC(F)(F)F)cc2)n1)c1cccnc1 [Compound 61] |
|  | 8 µM | 2 |  | 2.7 | O=C(Nc1nc(NC(=O)c2cccnc2)n(-c2ccc(C(F)(F)F)cc2)n1)c1cccnc1 [Compound 62] |
|  | 3 µM |  |  | 2.5 | O=C(Nc1nc(NC(=O)c2ccncc2)n(-c2ccc(C(F)(F)F)cc2)n1)c1ccncc1 [Compound 63] |
|  |  |  | > 2.5 | > 2.5 | Cc1ccccc1C(=O)Nc1nc(NC(=O)c2ccc(F)cc2F)nn1-c1ccccc1 [Compound 150] |
|  |  |  |  | > 2.5 | Cc1ccccc1C(=O)Nc1nc(NC(C)(C)c2ccccc2)nn1-c1ccccc1 [Compound 152] |

More lines, now with the values behind:

| Compound | half-life at 1 μM [1] [h] | EC50 [2] | IC50 [3] [µM] | IC50 [4] [µM] | IC50 [5] [µM] |
| --- | --- | --- | --- | --- | --- |
| C#Cc1ccccc1C(=O)Nc1nc(NC(=O)c2cccc(N=[N+]=[N-])c2)n(-c2ccccc2)n1 [Compound 8] | 1.18 | 4 µM |  |  |  |
| Cc1ccccc1C(=O)Nc1nc(NC(=O)c2cocn2)n(-c2ccccc2)n1 [Compound 9] | 0.967 | 32 µM |  |  |  |
| Cc1ccccc1C(=O)Nc1nc(NC(=O)c2ncco2)n(-c2ccccc2)n1 [Compound 10] | 0.45 | 30 µM |  |  |  |
| C#Cc1cccc(C(=O)Nc2nc(NC(=O)c3cccc(N=[N+]=[N-])c3)n(-c3ccccc3)n2)c1 [Compound 11] | 2.45 | 2 µM |  |  |  |
| C#Cc1cccc(C(=O)Nc2nc(NC(=O)c3ccc(N=[N+]=[N-])cc3)nn2-c2ccccc2)c1 [Compound 12] | 2.1 | 1 µM and 3 µM |  |  |  |
| C#Cc1cccc(C(=O)Nc2nc(NC(=O)c3ccc(N=[N+]=[N-])cc3)n(-c3ccccc3)n2)c1 [Compound 18] | 1.72 | 1 µM and 3 µM |  |  |  |
| Cc1ccccc1C(=O)Nc1nc(NC(=O)c2ccccc2C)n(-c2ccc(N3CCC(O)C3)cc2)n1 (stereo not drawn) [Compound 58] |  | 7 µM | 2.6 | 2.4 |  |
| O=C(Nc1nc(NC(=O)c2ccncc2)n(-c2ccc(OC(F)(F)F)cc2)n1)c1ccncc1 [Compound 65] |  | 5 µM |  | 2.5 | 2.5 |
| Cc1ccccc1C(=O)Nc1nc(-c2cccc(F)n2)nn1-c1ccccc1 [Compound 123] | 1.4 | 7 µM |  |  |  |
| Cc1ccccc1C(=O)Nc1nc(-c2ccccc2O)nn1-c1ccc(OC(F)(F)F)cc1 [Compound 137] | 1.22 | 4 µM |  |  |  |
| Cc1ccccc1C(=O)Nc1nc(NC(=O)c2c(F)cc(F)cc2F)nn1-c1ccccc1 [Compound 149] |  |  |  | > 2.5 | > 2.5 |
